# Assays:
# HEp-2 = experiment: Ability to inhibit growth of human epithelial (H.Ep.-2) cells in culture; format: functional, cell-based; details: read-out: I50
# L1210 = experiment: Ability to inhibit growth of L1210 cells in culture was determined.; format: functional, cell-based; details: Mus musculus, read-out: I50
IC50 (L1210),SMILES,IC50 (HEp-2)
3 µM,[N-]=[N+]=CC(=O)C1=NNC([C@@H]2O[C@H](CO)[C@@H](O)[C@H]2O)C1=N (stereo partly drawn),2 µM
> 120 µM,CC(=O)c1ncn([C@@H]2O[C@H](CO)[C@@H](O)[C@H]2O)c1N,

# Source: ChEMBL document CHEMBL1123682, “5-Amino-4-(diazoacetyl)-1-beta-D-ribofuranosylimidazole, a new antileukemic agent” (J Med Chem, 1987)
